In US12084434B2 (Scorpion Therapeutics, Inc., priority 2021, dated 2024):
Read-outs that look alike come from different tables or passages of the source.

What was measured:
[1] = biological target: T1, PI3Kα H1047R protein (p110-α H1047R complexed with truncated p85-α) (Homo sapiens, UniProt P42336, H1047R); test: Surface Plasmon Resonance (SPR) binding, wortmannin-blocked protein; settings: Biacore 8K, ATP site blocked with 1 μM wortmannin, 25° C.
T1 construct: The protein contained a full-length p110-α subunit harboring the H1047R mutation
T1 sequence (P42336 whole entry H1047R, the tested form may be a part): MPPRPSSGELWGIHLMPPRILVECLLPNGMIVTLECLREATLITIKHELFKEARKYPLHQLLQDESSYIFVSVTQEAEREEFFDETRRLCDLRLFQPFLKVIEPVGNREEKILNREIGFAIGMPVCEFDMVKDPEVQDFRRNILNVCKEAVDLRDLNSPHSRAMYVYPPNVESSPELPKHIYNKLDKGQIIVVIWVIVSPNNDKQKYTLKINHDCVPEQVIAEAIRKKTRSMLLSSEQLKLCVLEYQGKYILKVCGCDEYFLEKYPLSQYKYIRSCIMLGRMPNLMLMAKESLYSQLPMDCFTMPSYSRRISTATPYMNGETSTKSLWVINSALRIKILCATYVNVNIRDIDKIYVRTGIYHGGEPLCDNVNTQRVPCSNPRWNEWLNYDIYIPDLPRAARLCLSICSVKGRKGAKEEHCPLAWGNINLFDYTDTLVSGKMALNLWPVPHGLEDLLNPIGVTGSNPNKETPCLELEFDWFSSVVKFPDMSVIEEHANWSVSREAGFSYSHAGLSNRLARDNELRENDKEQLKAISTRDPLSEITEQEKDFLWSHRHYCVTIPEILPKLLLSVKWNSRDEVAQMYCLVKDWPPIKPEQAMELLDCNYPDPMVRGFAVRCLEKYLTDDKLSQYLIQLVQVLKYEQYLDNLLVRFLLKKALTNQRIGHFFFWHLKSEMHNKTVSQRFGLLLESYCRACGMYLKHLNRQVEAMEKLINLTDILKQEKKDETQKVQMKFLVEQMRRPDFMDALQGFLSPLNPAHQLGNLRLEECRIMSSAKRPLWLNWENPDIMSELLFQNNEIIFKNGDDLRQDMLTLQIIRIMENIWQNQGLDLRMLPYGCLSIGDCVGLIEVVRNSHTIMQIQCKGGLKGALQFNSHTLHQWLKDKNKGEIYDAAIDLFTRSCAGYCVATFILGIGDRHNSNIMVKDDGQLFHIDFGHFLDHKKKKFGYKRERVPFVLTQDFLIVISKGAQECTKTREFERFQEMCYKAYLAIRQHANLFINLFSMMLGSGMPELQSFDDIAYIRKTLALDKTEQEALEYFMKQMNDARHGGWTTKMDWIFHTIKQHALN
T1 sequence (P27986 322-694 partner limits assumed): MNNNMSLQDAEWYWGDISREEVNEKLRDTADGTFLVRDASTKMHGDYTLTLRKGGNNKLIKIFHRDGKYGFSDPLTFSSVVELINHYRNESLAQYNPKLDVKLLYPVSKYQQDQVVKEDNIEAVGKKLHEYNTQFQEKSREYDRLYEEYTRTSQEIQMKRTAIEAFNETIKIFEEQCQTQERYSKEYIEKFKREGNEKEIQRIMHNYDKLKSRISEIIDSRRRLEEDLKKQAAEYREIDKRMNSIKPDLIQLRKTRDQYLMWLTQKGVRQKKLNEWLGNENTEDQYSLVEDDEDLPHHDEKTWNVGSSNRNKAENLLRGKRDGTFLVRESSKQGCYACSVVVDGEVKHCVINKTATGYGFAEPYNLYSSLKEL
Protocol: Surface Plasmon Resonance (SPR)
SPR experiments were performed on a Biacore 8K instrument. A biotinylated recombinant PI3Kα H1047R protein was used in this study. The protein contained a full-length p110-α subunit harboring the H1047R mutation with an N-terminal AviTag, complexed with a truncated p85-α subunit (amino acid residues 322-694). The protein was first incubated with 1 μM wortmannin for 30 min at RT to covalently block the ATP binding site, then immobilized onto a streptavidin sensor chip by flowing the protein through the sensor chip at typically 20 μg/mL concentration and 2 μL/min flow rate for 1200 seconds. Compound binding affinities were measured in the multi-cycle kinetics mode, at 90 μL/min flow rate with 90 seconds association time and 240 seconds dissociation time. The running buffer contained 50 mM Tris, pH 7.5, 150 mM NaCl, 0.01% Brij35, 1 mM DTT, 1 mM MgCl2, 0.05% Tween-20 and 2% DMSO. Temperature was maintained at 25° C. during experiments.

[2] = system: T47D pAKT (S473), PI3Kα H1047R mutation present; test: HTRF pAKT-T47D;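 further: assay medium was RPMI with 10% FBS and 0.2 units/ml bovine insulin, without phenol red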
Protocol: Homogenous Time-Resolved Fluorescence (HTRF)—pAKT-T47D
Compounds were assayed using homogeneous time-resolved fluorescence (HTRF).
Gibco RPMI 1640 Medium, no phenol red; Gibco RPMI 1640 Medium; Gibco Trypsin-EDTA (0.5%), no phenol red; Gibco DPBS; Trypan blue solution 0.4% (Corning); Avantor Seradigm Premium Grade Fetal Bovine Serum (FBS); Greiner 784080-384 well TC treated white plates; pAKT (Ser473) HTRF; Gibco Insulin, human recombinant, zinc solution; Gibco Recovery Cell Culture Freezing Medium; Countess II FL Automated Cell Counter (ThermoFisher); Countess II Slides (ThermoFisher); Microscope; and PHERAstar FSX Microplate Reader (BMG LABTECH, Inc.).
The scinamic cell line ID was T47D.1, the HTRF detection was pAKT (S473), a PI3Kα H1047R mutation was present, the seeding density was 5000, the timepoint was 1 hour, and the medium used was RPMI+10% FBS (no phenol red)+0.2 units/ml bovine insulin.
• The cell density was not permitted to reach 100% confluence. The cells were split 1:5 when they reached ˜80% confluence. • Cells were split twice a week (Mon and Fri). • Cells over passage 18 were not used (˜2 months of maintenance). • Antibiotics were not used for tissue culture maintenance or assays. […] Protocol Day1
The procedure was as follows: • 1. Prepared ARP: • a. Stamped 12.5 nL from 10 μmM source plate to destination plate using Echo. Sealed plate immediately and froze at −20° C. if it was not used on the same day. • b. If a frozen ARP was used, the plate was thawed and spun at 1000 rpm×1 min. • 2. Preparation of cells (adherent): • a. Aspirated media from cells. Washed cells with sterile 1XPBS. Aspirated PBS and added appropriate amount of Trypsin. • b. Once cells were fully trypsinized, added appropriate media to resuspend cells. Transferred cells to a 15 mL or 50 mL conical tube. • c. Counted cells on the Countess II Cell Counter. • 3. Plating of cells: • a. Prepared cells at appropriate plating density. Dispensed 12 μL of diluted cells per well of a Greiner 784080-384 well TC treated white plate using a Multidrop Combi to columns 1-23. Added 12 uL of appropriate phenol free media only to column 24. • b. Placed plates in 37° C. tissue culture incubator for appropriate treatment time (refer to “Assay” table). • 4. Prepared HTRF Lysis Buffer • a. Calculate the amount of HTRF lysis buffer master mix needed to perform the desired experiments plus any extra dead volume required for dispensing (4 μL required per well). […] Add 4 uL Lysis buffer master mix to all wells with sample or DMSO. Centrifuge the plates for 1 minute at 1000 rpm. • c. Incubate at room temperature for 30 minutes. • 5. Prepared HTRF Antibody • a.

[3] = Homo sapiens, T47D, 1 h, read-out: T47D pAKT IC50 (nM), T47D.1 cells, pAKT (S473) HTRF, 1 hour
[4] = read-out: T47D pAKT IC50, T47D.1 cells, pAKT (S473) HTRF, 1 hour

With `CC(C)C(NC(=O)Nc1cccc(C(N)=O)c1)c1cc2cc(F)ccc2o1` (racemic) [Compound 50, 3-(3-(1-(5-fluorobenzofuran-2-yl)-2-methylpropyl)ureido)benzamide] as the molecule, how does the Kd [1] read?
Its Kd is 100 to 250 nM.

What about the IC50 [2, 3] of the same molecule?
Its IC50 is greater than 5000 nM.

`Cc1c(C(NC(=O)Nc2cccc(C(N)=O)c2)C(C)C)oc2ccc(F)c(F)c12` (racemic) [Compound 54, 3-(3-(1-(4,5-difluoro-3-methylbenzofuran-2-yl)-2-methylpropyl)ureido)benzamide] was tested. Which Kd [1] did it give?
Its Kd is 100 to 250 nM.

And the IC50 [2, 3]?
The IC50 was greater than 5000 nM.

With `Cc1c(C(NC(=O)Nc2cnc(N)nc2)C(F)(F)F)oc2ccc(F)cc12` (racemic) [Compound 68, 1-(2-aminopyrimidin-5-yl)-3-(2,2,2-trifluoro-1-(5-fluoro-3-methylbenzofuran-2-yl)ethyl)urea] as the molecule, how does the Kd [1] read?
Its Kd is less than 100 nM.

And the IC50 [2, 3]?
The IC50 was less than 1000 nM.

`Cc1c([C@@H](NC(=O)N[C@H]2CC[C@H](C(N)=O)CC2)C(C)C)oc2ccc(F)cc12` (relative stereo) [Compound 42, (1R,4r)-4-(3-((R*)-1-(5-fluoro-3-methylbenzofuran-2-yl)-2-methylpropyl)ureido)cyclohexane-1-carboxamide] was tested. Which Kd [1] did it give?
Its Kd is no less than 500 nM.

How did the Kd [1] turn out when `Cc1c(C(NC(=O)Nc2ccc(S(C)(=O)=O)cc2)C(C)C)oc2ccc(F)cc12` (single isomer, unassigned) [Compound 11] was run?
The Kd was 100 to 250 nM.

Which Kd [1] does the source give for `CNS(=O)(=O)c1ccc(NC(=O)NC(C)c2oc3ccc(F)cc3c2C)cc1` (single isomer, unassigned) [Compound 14] here?
The Kd was no less than 500 nM.

For `Cc1c([C@@H](NC(=O)N[C@@H]2CCCN(S(C)(=O)=O)C2)C(C)C)oc2ccc(F)cc12` (single isomer, unassigned) [Compound 19], which Kd [1] is on record?
The Kd was no less than 500 nM.

`Cc1c([C@@H](NC(=O)N[C@H]2CCCN(S(C)(=O)=O)C2)C(C)C)oc2ccc(F)cc12` (single isomer, unassigned) [Compound 20] was tested. Which Kd [1] did it give?
Its Kd is 100 to 250 nM.

And the IC50 [2, 3]?
Its IC50 is 1000 to 5000 nM.

For `Cc1c([C@@H](NC(=O)Nc2ccc(C(N)=O)cc2)C(C)C)oc2ccc(F)cc12` (single isomer, unassigned) [Compound 21], which Kd [1] is on record?
Its Kd is 100 to 250 nM.

For `Cc1c([C@@H](NC(=O)Nc2cccc(S(C)(=N)=O)c2)C(C)C)oc2ccc(F)cc12` (single isomer, unassigned) [Compound 29], which Kd [1] is on record?
The Kd was 100 to 250 nM.

What about the IC50 [2, 3] of the same molecule?
The IC50 was 1000 to 5000 nM.

How did the Kd [1] turn out when `Cc1c([C@@H](NC(=O)Nc2cccc(S(C)(=N)=O)c2)C(C)C)oc2ccc(F)cc12` (single isomer, unassigned) [Compound 30] was run?
The Kd was 100 to 250 nM.

What about the IC50 [2, 4] of the same molecule?
Its IC50 is 1000 to 5000 nM.

With `Cc1c([C@@H](NC(=O)N[C@@H]2CCC[C@@H](C(N)=O)C2)C(C)C)oc2ccc(F)cc12` (single isomer, unassigned) [Compound 32] as the molecule, how does the Kd [1] read?
Its Kd is 100 to 250 nM.

What about the IC50 [2, 3] of the same molecule?
Its IC50 is greater than 5000 nM.

Which Kd [1] does the source give for `COC(=O)N1CCC(NC(=O)NC(c2oc3ccc(F)cc3c2C)C(C)C)CC1` (single isomer, unassigned) [Compound 36] here?
The Kd was no less than 500 nM.

And the IC50 [2, 3]?
Its IC50 is greater than 5000 nM.

Which results are given for `Cc1c(C(NC(=O)Nc2cnc(N3CCC3)nc2)C(F)(F)F)oc2ccc(F)cc12` (single isomer, unassigned) [Compound 69, 1-(2-(azetidin-1-yl)pyrimidin-5-yl)-3-(2,2,2-trifluoro-1-(5-fluoro-3-methylbenzofuran-2-yl)ethyl)urea]?
Kd [1]: < 100 nM; IC50 [2, 3]: < 1000 nM

Which results are given for `Cc1c([C@@H](NC(=O)Nc2cccnc2)C(C)C)oc2ccc(F)cc12` [Compound 1, (S)-1-(1-(5-fluoro-3-methylbenzofuran-2-yl)-2-methylpropyl)-3-(pyridin-3-yl)urea]?
Kd [1]: 250 to 500 nM; IC50 [2, 3]: 1000 to 5000 nM

With `Cc1c([C@H](C)NC(=O)Nc2cccc(C(N)=O)c2)oc2ccc(F)cc12` [Compound 3, (S)-3-(3-(1-(5-fluoro-3-methylbenzofuran-2-yl)ethyl)ureido) benzamide] as the molecule, how does the Kd [1] read?
The Kd was no less than 500 nM.

And the IC50 [2, 3]?
Its IC50 is greater than 5000 nM.

`Cc1c([C@@H](C)NC(=O)Nc2ccc(C(N)=O)cc2)oc2ccc(F)cc12` [Compound 4, (R)-4-(3-(1-(5-fluoro-3-methylbenzofuran-2-yl)ethyl)ureido)benzamide] was tested. Which Kd [1] did it give?
The Kd was no less than 500 nM.

With `Cc1c([C@@H](NC(=O)N[C@H]2CC[C@H](O)CC2)C(C)C)oc2ccc(F)cc12` [Compound 6, 1-((S)-1-(5-fluoro-3-methylbenzofuran-2-yl)-2-methylpropyl)-3-((1r,4S)-4-hydroxycyclohexyl)urea] as the molecule, how does the Kd [1] read?
The Kd was 250 to 500 nM.

How did the Kd [1] turn out when `Cc1c([C@@H](NC(=O)N[C@H]2CC[C@H](O)CC2)C(C)C)oc2cccc(F)c12` [Compound 7, 1-((S)-1-(4-fluoro-3-methylbenzofuran-2-yl)-2-methylpropyl)-3-((1r, 4S)-4-hydroxycyclohexyl)urea] was run?
The Kd was no less than 500 nM.

How did the Kd [1] turn out when `Cc1c([C@@H](NC(=O)Nc2ccc(S(C)(=O)=O)cc2)C(C)C)oc2ccccc12` [Compound 9, (S)-1-(2-methyl-1-(3-methylbenzofuran-2-yl)propyl)-3-(4-(methylsulfonyl)phenyl)urea] was run?
The Kd was 250 to 500 nM.

How did the Kd [1] turn out when `Cc1c([C@@H](C)NC(=O)Nc2ccc(S(N)(=O)=O)cc2)oc2ccc(F)cc12` [Compound 12, (R)-4-(3-(1-(5-fluoro-3-methylbenzofuran-2-yl)ethyl)ureido) benzenesulfonamide] was run?
Its Kd is no less than 500 nM.

What about the IC50 [2, 4] of the same molecule?
The IC50 was 1000 to 5000 nM.

`Cc1c([C@@H](NC(=O)Nc2ccc(S(C)(=O)=O)cc2)C2CC2)oc2ccc(F)cc12` [Compound 16, (S)-1-(cyclopropyl(5-fluoro-3-methylbenzofuran-2-yl)methyl)-3-(4-(methylsulfonyl)phenyl)urea] was tested. Which Kd [1] did it give?
The Kd was no less than 500 nM.

For `Cc1c([C@@H](NC(=O)Nc2cccc(S(N)(=O)=O)c2)C(C)C)oc2ccc(F)cc12` [Compound 17, (S)-3-(3-(1-(5-fluoro-3-methylbenzofuran-2-yl)-2-methylpropyl)ureido)benzenesulfonamide], which Kd [1] is on record?
Its Kd is 250 to 500 nM.

With `Cc1c([C@@H](NC(=O)Nc2cccc(S(C)(=N)=O)c2)C(C)C)oc2ccc(F)cc12` (stereo partly drawn) [Compound 28, 1-((S)-1-(5-fluoro-3-methylbenzofuran-2-yl)-2-methylpropyl)-3-(3-(S-methylsulfonimidoyl)phenyl)urea] as the molecule, how does the Kd [1] read?
Its Kd is 100 to 250 nM.

Which Kd [1] does the source give for `Cc1c([C@@H](NC(=O)Nc2cncc(C#N)c2)C2CC2)oc2ccc(F)cc12` [Compound 46, (S)-1-(5-cyanopyridin-3-yl)-3-(cyclopropyl(5-fluoro-3-methylbenzofuran-2-yl)methyl)urea] here?
Its Kd is no less than 500 nM.

`COC(=O)N1CCC[C@H](NC(=O)N[C@H](c2oc3ccc(F)cc3c2C)C(C)C)C1` [Compound 55, methyl (S)-3-(3-((S)-1-(5-fluoro-3-methylbenzofuran-2-yl)-2-methylpropyl)ureido)piperidine-1-carboxylate] was tested. Which Kd [1] did it give?
The Kd was no less than 500 nM.

For `Cc1c([C@H](NC(=O)Nc2cnc(N3CC[C@@H](O)C3)nc2)C(F)(F)F)oc2c(F)cc(F)cc12` [Compound 207], which IC50 [2, 3] is on record?
The IC50 was greater than 5000 nM.

How did the IC50 [2, 3] turn out when `Cc1c([C@@H](NC(=O)Nc2cnc(N3CC[C@@H](O)C3)nc2)C(F)(F)F)oc2c(F)cc(F)cc12` [Compound 208] was run?
The IC50 was less than 1000 nM.

`Cc1c([C@@H](NC(=O)Nc2cnc(N3CC[C@H](O)C3)nc2)C(F)(F)F)oc2c(F)cc(F)cc12` [Compound 209] was tested. Which IC50 [2, 3] did it give?
The IC50 was less than 1000 nM.

For `Cc1c([C@H](NC(=O)Nc2cnc(N3CC[C@H](O)C3)nc2)C(F)(F)F)oc2c(F)cc(F)cc12` [Compound 210], which IC50 [2, 3] is on record?
The IC50 was greater than 5000 nM.

Which IC50 [2, 3] does the source give for `Cc1c([C@@H](NC(=O)Nc2cnc(N3CC(C(N)=O)C3)nc2)C(F)(F)F)oc2c(F)cc(F)cc12` [Compound 211] here?
Its IC50 is less than 1000 nM.

For `Cc1c([C@H](NC(=O)Nc2cnc(N3CC(C(N)=O)C3)nc2)C(F)(F)F)oc2c(F)cc(F)cc12` [Compound 212], which IC50 [2, 3] is on record?
The IC50 was greater than 5000 nM.
